The text below walks through data of ChEMBL document CHEMBL1148291, “Prediction of human volume of distribution values for neutral and basic drugs. 2. Extended data set and leave-class-out statistics” (J Med Chem, 2004).

Series [1] is described as follows: Ionization constant (pKa). Type of series: physicochemical.
The nature of the next series: clinical. The following applies: human, in vivo.
A short description of another series: in vitro. The conditions noted are these: human, plasma.
For series [2] the following is noted: human, plasma.
Description: Unbound fraction (plasma)

Each structure is given as a SMILES string.

Description for clinical: Observed volume of distribution
Description for in vitro: Unbound fraction (plasma)

In series [1], `Cc1ccc(O)c(C(CCN(C(C)C)C(C)C)c2ccccc2)c1` (single isomer, unassigned) [TOLTERODINE] displayed a pKa of 9.8.
With `C[N+](C)([O-])CCC=C1c2ccccc2CCc2ccccc21` [AMITRIPTYLINOXIDE], the pKa entry was “Not Active”. For the same molecule, the volume of distribution (Vd) in “clinical” worked out at 1.2 L/kg. This molecule gave a fraction unbound in the series “in vitro” of 0.2.
As for `Cc1cc(=O)n(-c2ccccc2)n1C` [ANTIPYRINE], the pKa result is on record as “Not Active”. The Vd in the series “clinical” is 0.6 L/kg.
Take `CNCC[C@@H](Oc1ccccc1C)c1ccccc1` [ATOMOXETINE]: in series [1], the pKa was 10.1. The volume of distribution (Vd) in “clinical” came to 0.85 L/kg.
On the same counts, the results for `CC(C)NCC(O)COc1ccc(CCOCC2CC2)cc1` (stereo not drawn) [BETAXOLOL] are 9.21 and 6.08 L/kg.
In series [1], `CC(C)NCC(O)COc1ccc(COCCOC(C)C)cc1` (stereo not drawn) [BISOPROLOL] returned a pKa of 9.57. Further, in “clinical”, the volume of distribution (Vd) was 3.31 L/kg. The molecule further registered a fraction unbound in the series “in vitro” of 0.7.
For the molecule `O=C1CN=C(c2ccccn2)c2cc(Br)ccc2N1` [BROMAZEPAM], the pKa entry is “Not Active”. This molecule also came in with a fraction unbound in the series “in vitro” of 0.39.
In the case of `COc1cc2c(c(OC)c1OC)-c1ccc(OC)c(=O)cc1[C@@H](NC(C)=O)CC2` [COLCHICINE], the pKa entry was “Not Active”. This molecule returned a volume of distribution (Vd) in the series “clinical” of 5.2 L/kg.
As for `OC(Cn1cncn1)(Cn1cncn1)c1ccc(F)cc1F` [FLUCONAZOLE], the pKa entry is “Not Active”. In addition, in the series “clinical”, the Vd is 0.6 L/kg.
Turning to `C[C@]12CCC(=O)C=C1CC[C@@H]1[C@@H]2[C@@H](O)C[C@@]2(C)[C@H]1CC[C@]2(O)C(=O)CO` [HYDROCORTISONE], the pKa result is given as “Not Active”. The volume of distribution (Vd) in “clinical” came to 0.44 L/kg. In “in vitro”, this molecule displayed a fraction unbound of 0.09.
Molecule `CC(CCc1ccccc1)NCC(O)c1ccc(O)c(C(N)=O)c1` (stereo not drawn) [LABETALOL] yielded a pKa in series [1] of 7.4.
As to `CN1C(=O)C(O)N=C(c2ccccc2Cl)c2cc(Cl)ccc21` (stereo not drawn) [LORMETAZEPAM], the pKa entry was “Not Active”. Besides, the distribution volume (Vd) in the series “clinical” was found to be 1.5 L/kg.
Molecule `CN1CCN2c3ncccc3Cc3ccccc3C2C1` (stereo not drawn) [MIRTAZAPINE] registered a pKa in series [1] of 7.3. The molecule also yielded a distribution volume (Vd) in the series “clinical” of 4.8 L/kg.
In series [2], `CC(C)(C)NCC(O)COc1cccc2c1C[C@H](O)[C@H](O)C2` (stereo partly drawn) [NADOLOL] yielded a Fu of 0.7. The Vd in “clinical” was determined as 1.94 L/kg.
In series [1], `OC(CNCC(O)C1CCc2cc(F)ccc2O1)C1CCc2cc(F)ccc2O1` (stereo not drawn) [NEBIVOLOL] gave a pKa of 8.22. Besides, the Vd in “clinical” turned out to be 11.2 L/kg. The molecule further had a fraction unbound in “in vitro” of 0.02.
Turning to `CNCCC=C1c2ccccc2CCc2ccccc21` [NORTRIPTYLINE], in series [1], the pKa worked out at 10.1. The molecule further registered a Vd in “clinical” of 19.1 L/kg.
In the case of `CC(=O)O[C@H]1C(=O)[C@@]2(C)[C@H]([C@H](OC(=O)c3ccccc3)[C@]3(O)C[C@H](OC(=O)[C@H](O)[C@@H](NC(=O)c4ccccc4)c4ccccc4)C(C)=C1C3(C)C)[C@]1(OC(C)=O)CO[C@@H]1C[C@@H]2O` [PACLITAXEL], the pKa entry was “Not Active”. This molecule also registered a fraction unbound in “in vitro” of 0.07.
`OCCN1CCN(CCCN2c3ccccc3Sc3ccc(Cl)cc32)CC1` [PERPHENAZINE]: the Fu in series [2] is 0.07. Further, the pKa in series [1] came out at 8.11. In “clinical”, the Vd is 20 L/kg.
The molecule `CN(C)CCCN1c2ccccc2Sc2ccccc21` [PROMAZINE] had a pKa in series [1] of 9.28. In “clinical”, this molecule displayed a volume of distribution (Vd) of 7.5 L/kg. The molecule also returned a fraction unbound in the series “in vitro” of 0.11.
With `CCN(CC)CCCC(C)Nc1c2ccc(Cl)cc2nc2ccc(OC)cc12` (stereo not drawn) [QUINACRINE], the pKa in series [1] came out at 7.73. This molecule gave a Vd in “clinical” of 124 L/kg.
On to `CCN(C)C(=O)Oc1cccc([C@H](C)N(C)C)c1` [RIVASTIGMINE], for which, in series [1], the pKa was 8.99. Besides, the volume of distribution (Vd) in “clinical” stood at 2.2 L/kg. The fraction unbound in the series “in vitro” worked out at 0.6.
On the same counts, the results for `CC(C)NCC(O)c1ccc(NS(C)(=O)=O)cc1` (stereo not drawn) [SOTALOL] are 9.76, 0.9 L/kg and 1.
For `C#CCCCC(=O)c1cc(C(C)(C)C)c(O)c(C(C)(C)C)c1` [TEBUFELONE], the pKa result was “Not Active”. The unbound share (fraction unbound) in the series “in vitro” was 0.0007.
Molecule `CC(C)(C)NC[C@H](O)COc1nsnc1N1CCOCC1` [TIMOLOL] came in with a pKa in series [1] of 8.8. In the series “clinical”, this molecule registered a Vd of 3.5 L/kg.
With `Cc1ccccc1OCC(O)CNCCOc1ccc(C(N)=O)cc1` (stereo not drawn) [TOLAMOLOL], the pKa in series [1] was determined as 7.9. Besides, the Vd in “clinical” was found to be 3.2 L/kg. Moreover, the unbound share (fraction unbound) in “in vitro” is 0.09.
In series [1], `CC(CN(C)C)CN1c2ccccc2CCc2ccccc21` (stereo not drawn) [TRIMIPRAMINE] registered a pKa of 9.24. In addition, in “clinical”, the volume of distribution (Vd) was 31 L/kg. The fraction unbound in the series “in vitro” worked out at 0.05.
On to `C[C@@H](c1ncncc1F)[C@](O)(Cn1cncn1)c1ccc(F)cc1F` [VORICONAZOLE], for which the pKa result was “Not Active”. In the series “clinical”, this molecule yielded a Vd of 4.6 L/kg. This molecule also gave a fraction unbound in “in vitro” of 0.42.
